According to the supplement of paper PMC10307832:

Columns and labels:
Assay in all cases: relative viability (nuclei count vs DMSO), 5 days (fraction); higher = more cells survive
SW 1573 = system: SW 1573
Outline: (§1)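 Values are medians from duplicate plates. Each reflects relative viability, defined as the nuclei count of treated wells over that of vehicle wells. Lung cancer cell lines in 1536-well plates were pin-tool dosed one day after seeding with one drug alone or with a fixed anchor-drug dose plus five library-drug doses (not always all listed) in √10 steps, then fixed, stained and imaged at 4× after 5 days.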

NCI-H1793 = system: NCI-H1793
Outline: as §1

NCI-H596 = system: NCI-H596
Outline: as §1

NCI-H1650 = system: NCI-H1650
Outline: as §1

LC-2-ad = system: LC-2-ad
Outline: as §1

SW 900 = system: SW 900
Outline: as §1

NCI-H2347 = system: NCI-H2347
Outline: as §1

A-427 = system: A-427
Outline: as §1

COR-L23 = system: COR-L23
Outline: as §1

LK-2 = system: LK-2
Outline: as §1

HCC-44 = system: HCC-44
Outline: as §1

LCLC-103H = system: LCLC-103H
Outline: as §1

PC-14 = system: PC-14
Outline: as §1

NCI-H460 = system: NCI-H460
Outline: as §1

LCLC-97TM1 = system: LCLC-97TM1
Outline: as §1

NCI-H23 = system: NCI-H23
Outline: as §1

201T = system: 201T
Outline: as §1

LU99A = system: LU99A
Outline: as §1

NCI-H727 = system: NCI-H727
Outline: as §1

H3255 = system: H3255
Outline: as §1

NCI-H1563 = system: NCI-H1563
Outline: as §1

PC-3 [JPC-3] = system: PC-3 [JPC-3]
Outline: as §1

NCI-H2228 = system: NCI-H2228
Outline: as §1

O=c1cc(N2CCOCC2)oc2c(-c3cccc4c3sc3ccccc34)cccc12 + CCNC(=O)c1noc(-c2cc(C(C)C)c(O)cc2O)c1-c1ccc(CN2CCOCC2)cc1 [Luminespib] (partner 0.01 µM)
relative viability (SW 1573; first compound 0.01 µM): 0.419
relative viability (SW 1573; first compound 0.03162 µM): 0.205
relative viability (SW 1573; first compound 0.1 µM): 0.211
relative viability (SW 1573; first compound 0.3162 µM): 0.735
relative viability (SW 1573; first compound 1 µM): 0.218
relative viability (NCI-H1793; first compound 0.01 µM): 0.159
relative viability (NCI-H1793; first compound 0.1 µM): 0.173
relative viability (NCI-H1793; first compound 0.3162 µM): 0.134
relative viability (NCI-H1793; first compound 1 µM): 0.18
relative viability (NCI-H596; first compound 0.01 µM): 1.05
relative viability (NCI-H596; first compound 0.03162 µM): 0.917
relative viability (NCI-H596; first compound 0.1 µM): 0.877
relative viability (NCI-H596; first compound 0.3162 µM): 1.14
relative viability (NCI-H596; first compound 1 µM): 1.01
relative viability (NCI-H1650; first compound 0.01 µM): 0.211
relative viability (NCI-H1650; first compound 0.03162 µM): 0.169
relative viability (NCI-H1650; first compound 0.1 µM): 0.196
relative viability (NCI-H1650; first compound 0.3162 µM): 0.203
relative viability (NCI-H1650; first compound 1 µM): 0.191
relative viability (LC-2-ad; first compound 0.01 µM): 1.04
relative viability (LC-2-ad; first compound 0.03162 µM): 1.12
relative viability (LC-2-ad; first compound 0.1 µM): 0.978
relative viability (LC-2-ad; first compound 0.3162 µM): 1.03
relative viability (LC-2-ad; first compound 1 µM): 1.13
relative viability (SW 900; first compound 0.01 µM): 0.203
relative viability (SW 900; first compound 0.03162 µM): 0.186
relative viability (SW 900; first compound 0.1 µM): 0.173
relative viability (SW 900; first compound 0.3162 µM): 0.196
relative viability (SW 900; first compound 1 µM): 0.176
relative viability (NCI-H2347; first compound 0.01 µM): 0.571
relative viability (NCI-H2347; first compound 0.03162 µM): 0.383
relative viability (NCI-H2347; first compound 0.1 µM): 0.641
relative viability (NCI-H2347; first compound 0.3162 µM): 0.409
relative viability (NCI-H2347; first compound 1 µM): 0.323
relative viability (A-427; first compound 0.01 µM): 0.944
relative viability (A-427; first compound 0.03162 µM): 0.903
relative viability (A-427; first compound 0.1 µM): 0.898
relative viability (A-427; first compound 0.3162 µM): 0.93
relative viability (A-427; first compound 1 µM): 1.01
relative viability (COR-L23; first compound 0.01 µM): 0.763
relative viability (COR-L23; first compound 0.03162 µM): 0.654
relative viability (COR-L23; first compound 0.1 µM): 0.724
relative viability (COR-L23; first compound 0.3162 µM): 0.608
relative viability (COR-L23; first compound 1 µM): 0.779
relative viability (LK-2; first compound 0.01 µM): 0.181
relative viability (LK-2; first compound 0.03162 µM): 0.217
relative viability (LK-2; first compound 0.1 µM): 0.198
relative viability (LK-2; first compound 0.3162 µM): 0.176
relative viability (LK-2; first compound 1 µM): 0.139
relative viability (HCC-44; first compound 0.01 µM): 1.02
relative viability (HCC-44; first compound 0.03162 µM): 1.01
relative viability (HCC-44; first compound 0.1 µM): 1.31
relative viability (HCC-44; first compound 0.3162 µM): 0.998
relative viability (HCC-44; first compound 1 µM): 1.11
relative viability (LCLC-103H; first compound 0.01 µM): 0.912
relative viability (LCLC-103H; first compound 0.03162 µM): 1.01
relative viability (LCLC-103H; first compound 0.1 µM): 1.02
relative viability (LCLC-103H; first compound 0.3162 µM): 0.898
relative viability (LCLC-103H; first compound 1 µM): 0.925
relative viability (PC-14; first compound 0.03162 µM): 0.151
relative viability (PC-14; first compound 0.3162 µM): 0.197
relative viability (PC-14; first compound 1 µM): 0.135
relative viability (NCI-H460; first compound 0.01 µM): 0.037
relative viability (NCI-H460; first compound 0.03162 µM): 0.0402
relative viability (NCI-H460; first compound 0.1 µM): 0.0368
relative viability (NCI-H460; first compound 0.3162 µM): 0.035
relative viability (NCI-H460; first compound 1 µM): 0.0452
relative viability (LCLC-97TM1; first compound 0.01 µM): 0.621
relative viability (LCLC-97TM1; first compound 0.03162 µM): 0.796
relative viability (LCLC-97TM1; first compound 0.1 µM): 0.827
relative viability (LCLC-97TM1; first compound 0.3162 µM): 0.759
relative viability (LCLC-97TM1; first compound 1 µM): 0.728
relative viability (NCI-H23; first compound 0.01 µM): 0.194
relative viability (NCI-H23; first compound 0.03162 µM): 0.194
relative viability (NCI-H23; first compound 0.3162 µM): 0.239
relative viability (NCI-H23; first compound 1 µM): 0.206
relative viability (201T; first compound 0.01 µM): 0.961
relative viability (201T; first compound 0.03162 µM): 1.1
relative viability (201T; first compound 0.1 µM): 1.03
relative viability (201T; first compound 0.3162 µM): 1.02
relative viability (201T; first compound 1 µM): 0.996
relative viability (LU99A; first compound 0.01 µM): 0.266
relative viability (LU99A; first compound 0.03162 µM): 0.23
relative viability (LU99A; first compound 0.1 µM): 0.232
relative viability (LU99A; first compound 0.3162 µM): 0.267
relative viability (LU99A; first compound 1 µM): 0.183
relative viability (NCI-H727; first compound 0.01 µM): 0.324
relative viability (NCI-H727; first compound 0.03162 µM): 0.399
relative viability (NCI-H727; first compound 0.1 µM): 0.375
relative viability (NCI-H727; first compound 0.3162 µM): 0.356
relative viability (NCI-H727; first compound 1 µM): 0.416
relative viability (H3255; first compound 0.01 µM): 0.885
relative viability (H3255; first compound 0.03162 µM): 0.991
relative viability (H3255; first compound 0.1 µM): 0.948
relative viability (H3255; first compound 0.3162 µM): 0.909
relative viability (H3255; first compound 1 µM): 0.945
relative viability (NCI-H1563; first compound 0.01 µM): 0.519
relative viability (NCI-H1563; first compound 0.03162 µM): 0.552
relative viability (NCI-H1563; first compound 0.1 µM): 0.515
relative viability (NCI-H1563; first compound 0.3162 µM): 0.558
relative viability (NCI-H1563; first compound 1 µM): 0.544
relative viability (PC-3 [JPC-3]; first compound 0.01 µM): 0.711
relative viability (PC-3 [JPC-3]; first compound 0.03162 µM): 0.694
relative viability (PC-3 [JPC-3]; first compound 0.1 µM): 0.689
relative viability (PC-3 [JPC-3]; first compound 0.3162 µM): 0.695
relative viability (PC-3 [JPC-3]; first compound 1 µM): 0.634
relative viability (NCI-H2228; first compound 0.01 µM): 0.151
relative viability (NCI-H2228; first compound 0.03162 µM): 0.112
relative viability (NCI-H2228; first compound 0.1 µM): 0.125
relative viability (NCI-H2228; first compound 0.3162 µM): 0.191
relative viability (NCI-H2228; first compound 1 µM): 0.133
